Assay results reported in US20250057793A1, “BENZOIC ACID SALTS FOR TREATMENT OF NERVOUS SYSTEM INJURIES AND DISORDERS” (The United States Government as represented by the …, priority 2021, published 2025).

What was measured:
TBI mice = experiment: Novel object recognition (NOR) test in TBI mice; assay type: in vivo, mouse; settings: 21 days post-injury, 50 mg/kg/day oral gavage
Procedure: This test evaluates the animal's ability to recognize the novel object in the environment and monitor short-term memory. Initially, the mice were placed in a square novel box (20 in. long×8 in. high) surrounded with an infrared sensor. Two plastic toys (2.5-3 in. size) that varied in color, shape, and texture were placed in specific locations in the environment 18in. away from each other. The mice were able to freely explore the environment and objects for 15 mins and were then placed back into their individual home cages. After 30 min intervals, the mice were placed back into the environment, with the 2 objects in the same locations, but now one of the familiar objects was replaced with a third novel object. The mice were again allowed to freely explore both objects for 15 min. The familiar and novel objects were thoroughly cleaned with a mild detergent after each testing session.

[1] = test system: Huntington pathology in mice; settings: oral, 50 mg/kg body wt/d; cited from earlier work
[2] = test system: experimental allergic encephalomyelitis (EAE) in mice; settings: oral, 50 mg/kg body wt/d; cited from earlier work
[3] = test system: mice with traumatic brain injury (TBI); experiment: Remyelination in corpus callosum of mice with TBI (PLP/A2B5 double-labeling); assay type: in vivo, mouse; settings: 50 mg/kg body weight/day oral gavage
Procedure: FIG. 4 are images of the corpus collosum in mice showing the levels of proteolipid protein (PLP) and A2B5, a marker of oligodendroglial progenitor cells (OPC), in the experimental conditions after 21 days. Oral administration of sodium benzoate (NaB), but not sodium formate (NaFO), stimulates remyelination in mice with traumatic brain injury (TBI). Mice (n=6 per group) were induced moderate TBI by controlled cortical impact (CCI). Starting from 2 hours after TBI, mice were treated with NaB and NaFO (50 mg/kg body weight/day; mixed with water) orally via gavage. After 21 d of treatment, brain sections were double-labeled for PLP and A2B5.
Proteolipid protein (PLP) is a marker of oligodendrocytes and A2B5 is a marker of oligodendroglial progenitor cells (OPC). After 21 days of treatment, brain sections were double-labeled with antibodies against PLP and A2B5.

mice with TBI = experiment: Side effects of oral NaB in TBI mice; assay type: in vivo, mouse
[4] = test system: OPCs cultured on polycaprolactone nanofibers; experiment: Myelination of synthetic polycaprolactone nanofibers by OPCs; assay type: cell-based, mouse; settings: 100 μM, 2 days after 7 days culture on nanofibers
Procedure: FIG. 15A) After 18 h of 100 μM NaB treatment in serum-free condition, cells were fixed and then dual immuno-stained with MBP (red) and OPC marker NG2 (green). Nuclei were stained with DAPI (blue). FIG. 15B) Similarly, OPCs were stained with PLP (red) and A2B5 (green) under similar treatment condition. Quantification of MBP+(FIG. 15C), NG2+(FIG. 15D), PLP+(FIG. 15E), and A2B5+(FIG. 15F) cells as a percentage of total cells (DAPI+). Average 5 fields per slide, total 3 slides. Results are mean+SEM. ***p<0.001. FIG. 15G) For protein expression, cells were treated with different doses of NaB for 18 h under serum free condition and then immunoblotted with PLP and MOG. FIG. 15H) Densitometric analyses of the bands relative to beta actin were done for PLP and MOG. ^ap<0.001 vs. control PLP; ^bp<0.005 vs. control MOG. FIG. 151) Cells were treated with NaB (100 μM) and NaFO (100 μM) for 4 h under serum-free condition followed by monitoring the mRNA expression of myelin-specific genes by real-time PCR (ap<0.01 vs. control PLP; ^bp<0.01 vs. control MOG; cp<0.01 vs. control MBP; dp<0.01 vs. control CNPase). OPCs were cultured on the top of randomly-oriented polycaprolactone nanofibers (Nanofiber Solutions; Cat #Z694576) for 7 days. […]

[5] = test system: cuprizone-intoxicated mice; experiment: Remyelination of corpus callosum in cuprizone-intoxicated mouse model of demyelination; assay type: in vivo; settings: cuprizone diet 5 weeks, then NaB 50 mg/kg body wt/d oral gavage 3 weeks
Procedure: FIGS. 16A-16C: Oral NaB stimulates the maturation of OPCs in vivo in the corpus callosum of cuprizone-intoxicated mice. C57/BL6 mice (8-10 week old; male) were fed cuprizone-containing diet (Envigo) for 5 weeks followed by treatment with NaB (50 mg/kg body wt/d) orally via gavage. FIG. 16A) After 3 weeks of treatment with NaB, corpus callosum sections were double-labeled for PLP and A2B5. Mean fluorescence intensity (MFI) of A2B5 (FIG. 16B) and PLP (FIG. 16C) were quantified from one section (two images per section) of each of 5 mice group. Results are mean+SEM of 5 mice per group. ***p<0.001; **p<0.01.
FIGS. 17A-17H: Effect of NaB on myelination in vivo in the corpus callosum of cuprizone-intoxicated mice. C57/BL6 mice (8-10 week old; male; n=5) were fed cuprizone-containing diet (Envigo) for 5 weeks followed by treatment with NaB (50 mg/kg body wt/d) orally via gavage. After 3 weeks of treatment with NaB, corpus callosum sections were immunostained MBP (FIG. 17A) and PLP (FIG. 17B). Mean fluorescence intensity (MFI) of MBP (FIG. 17C) and PLP (FIG. 17D) were quantified from one section (two images per section) of each of 5 mice group. Results are mean+SEM of 5 mice per group. **p<0.01; *p<0.05. FIG. 17E) Corpus callosum sections were stained for luxol fast blue (LFB). FIG. 17F) For electron microscopic studies, 50 μm thick sagittal sections were prepared and stained followed by analysis of corpus callosum sections for different parameters to evaluate axonal ultrastructures. FIG. 17G) G score was calculated in 75 axons per group for all three groups. FIG. 17H) Percentage of myelinated axons was calculated in 7 randomly selected corpus callosum sections of 5 mice per group. ***p<0.001.

LPS-stimulated microglia = settings: cited from earlier work
[6] = mice treated with cinnamon orally; cited from earlier work
[7] = if consumed in excess; cited from earlier work

Compound	time spent with novel object (exploration time) (TBI mice)	Huntington pathology [1]	adoptive transfer of EAE [2]	level of PLP in corpus callosum ([3]; 21 days of treatment)	number of OPCs (A2B5 positive) in corpus callosum ([3]; 21 days of treatment)	remyelination ([3]; 21 d of treatment)	side effects (decrease in body weight, loss of hair, fecal boli, infection, untoward behavior) (mice with TBI)	myelination of synthetic fibers (MBP immunofluorescence) [4]	MBP in corpus callosum [5]	level of A2B5 in corpus callosum [5]	level of PLP in corpus callosum [5]	maturation of OPCs in vivo in the corpus callosum [5]	remyelination in the corpus callosum [5]	level of TLR4 (LPS-stimulated microglia; LPS-stimulated microglia)	LPS-induced expression of iNOS and proinflammatory cytokines (LPS-stimulated microglia; microglia)	p21ras activation (LPS-stimulated microglia; microglial cells)	presence of NaB in the brain [6]	excretion [7]
O=C(OCC(COC(=O)c1ccccc1)OC(=O)c1ccccc1)c1ccccc1 [GTB, Glyceryl Tribenzoate]	significantly more time	alleviates	inhibits															
O=C([O-])c1ccccc1.[Na+] [NaB, Sodium benzoate]				markedly increased	decreased	stimulates	did not cause any side effects	stimulation of myelination	increased	decreased	increased	stimulates	can promote remyelination	has no effect	inhibits	suppression	detected in the brain	secreted through the urine
